Two compounds from US4387087A, “Cationic lipophilic complexes of ^99m Tc and their use for myocardial and hepatobiliary imaging” (priority 1980, dated 1983) can be followed below.

Several values for one entry are separate records, joined by “and”; a condition that tells them apart may be missing. Equal entries are not always repeated.

Holding throughout (type): in vivo
The nature of data set [1]: Myocardial imaging in a normal mongrel dog (Examples 4 and 5). The procedure: For example, time dependent scintiscans of the chest region of a patient can be used. A computer interface, 16 crystal, Ohio Nuclear Spectrometer, is used for these scans and about 5 mCi of a given radiopharmaceutical is injected; blood samples are concurrently collected via an indwelling intravenous catheter in order to determine blood clearance rates. Time dependent tissue distribution studies are then conducted.

The nature of data set [2]: Tissue distribution studies using normal female Sprague-Dawley rats (Table 1).
A short description of data set [3]: Blood clearance curves (Example 7, FIG. 4). Conditions: dog. An excerpt: It is clear that these two chemically similar agents are somewhat differentiated in the biological system.
Imaging of the myocardium or the hepatobiliary system can then be carried out (after waiting for appropriate periods of time to permit blood clearance of the radiopharmaceutical), by standard scanning techniques (Andres, J. T. et al., "Nuclear Medicine", Wiley & Sons, N.Y., 1977; "Basic Science Principles of Nuclear Medicine", Boyd, C. M. and Dalrymple, G. V., eds., Morby, St. Louis, 1974). For example, time dependent scintiscans of the chest region of a patient can be used. A computer interface, 16 crystal, Ohio Nuclear Spectrometer, is used for these scans and about 5 mCi of a given radiopharmaceutical is injected; blood samples are concurrently collected via an indwelling intravenous catheter in order to determine blood clearance rates. Time dependent tissue distribution studies are then conducted.
(§1) The two title complexes were injected into a dog as described for the complex of Example 4. […] These differences are graphically illustrated in FIG. 3, wherein are plotted time dependent myocardial and gallbladder distributions obtained by computer analysis of scintigraphic data; data for a given complex are normalized, but comparative data between complexes are not.

Data set [4] in a line: Time dependent myocardial and gallbladder distributions, computer analysis of scintigraphic data (Example 7, FIG. 3). Conditions: dog. On the procedure:
FIG. 3 compares the gallbladder uptake and heart clearing of 99m-Tc (diars)2 Cl2^+ with that of 99m-Tc (diars)2 Br2^+.
as §1

Data set [5] in a line: Hepatobiliary imaging in a mongrel dog (Example 6, FIGS. 1 and 2). The procedure: FIG. 2 is a schematic describing the photograph of FIG. 1. Both the photograph and accompanying schematic were taken after the complex had cleared the blood (5 minutes after injection), entered the liver and started clearing the liver and entering the gallbladder (10 minutes after injection).
The title complex was injected in the same vehicle as in Example 4 into a mongrel dog and images were obtained by positioning a camera directly over the chest of the dog.

On to “trans-[Tc-99m(diars)2 Br2 ]Br [trans-[Tc(diars)2 Br2]Br]”, for which, in data set [1], the “removal of the bulk of the activity” value is on record as “The bulk of the activity is taken out by the hepatobiliary system”. In data set [1] (50% ethanol/50% saline vehicle), the “maximal myocardial uptake, time post injection” value is reported as “about 20 minutes”. For the same compound, the “visualization of the myocardium” value in data set [1] (high sensitivity colimator) is reported as “clearly visualizing the myocardium”. In addition, in data set [2] (10 min post dose), the Blood is 0.38(3) % of the dose/g, the “Femur Muscle” value is listed as 0.22(6) % of the dose/g, the Kidney is reported as 3.1(6) % of the dose/g and the Liver is 4.5(6) % of the dose/g. The Pancreas in data set [2] (10 min post dose) is listed as 1.0(3) % of the dose/g. Moreover, in data set [2] (10 min post dose, 10 min), the Heart is 2.3(5) % of the dose/g and 2.3 % of the dose/g. Besides, in data set [2] (30 min post dose), the Blood is 0.27(3) % of the dose/g, the “Femur Muscle” value was 0.29(3) % of the dose/g, the Heart is on record as 1.8(1) % of the dose/g and the Kidney is 2.3(1) % of the dose/g. In addition, in data set [2] (30 min post dose), the Liver is given as 2.9(6) % of the dose/g and the Pancreas is 1.2(2) % of the dose/g. Besides, in data set [2] (60 min post dose), the Blood was 0.21(1) % of the dose/g, the “Femur Muscle” value was 0.26(5) % of the dose/g, the Heart is 1.3(1) % of the dose/g and the Kidney was 2.1(1) % of the dose/g. Besides, in data set [2] (60 min post dose), the Liver is listed as 2.7(3) % of the dose/g and the Pancreas is on record as 0.9(1) % of the dose/g. In addition, in data set [2] (120 min post dose), the Blood is on record as 0.18(3) % of the dose/g, the “Femur Muscle” value is recorded as 0.28(2) % of the dose/g, the Heart is recorded as 1.0(1) % of the dose/g and the Kidney is 1.9(1) % of the dose/g. Besides, in data set [2] (120 min post dose), the Liver was 2.1(2) % of the dose/g and the Pancreas is on record as 0.8(1) % of the dose/g. In data set [3], the “Blood clearance curves, comparison of the two complexes” value is on record as “biologically differentiated”. The “gallbladder handling of the two agents” value in data set [4] (FIG. 3) is given as “the gallbladder handles these two agents differently”. Moreover, in data set [4] (intravenous), the “gallbladder uptake (rate)” value was “relatively slow” and the “time post intravenous injection at which the myocardium is readily visualized” value was in the range of 20 to 40 min. Moreover, in data set [5] (0 minutes, immediately after injection), the “complex in the blood pool” value was “most of the complex is in the blood pool which is predominantly in the heart chambers”. In addition, in data set [5] (1 minute after injection), the “clearance from the blood” value is reported as “begins to clear from the blood”, the gallbladder uptake result was “The gallbladder does not yet contain any activity” and the liver uptake entry is “starts to enter the liver”. Besides, in data set [5] (5 minutes), the “clearance from the blood” value is on record as “The complex is all gone from the blood”, the gallbladder uptake result is recorded as “A small amount has begun to enter the gallbladder”, the heart image result is on record as “the heart image has disappeared” and the liver uptake result is listed as “most of it is in the liver”. For the same compound, in data set [5] (10 minutes), the gallbladder uptake result was “The gallbladder has taken up most of the complex and appears brighter than even the liver”. In addition, in data set [5] (20 minutes), the gallbladder uptake result is reported as “The gallbladder has taken up the bulk of the complex” and the liver activity entry is given as “the liver contains relatively little activity”. Besides, in data set [5] (30 minutes, FIGS. 1 and 2), the gallbladder uptake entry was “the gallbladder has taken up the bulk of the complex” and the liver activity result is on record as “the liver contains relatively little activity”. In data set [5] (FIGS. 1 and 2), the “time after injection at which the complex had cleared the blood” value was determined as 5 min; the “time after injection at which the complex started clearing the liver and entering the gallbladder” value turned out to be 10 min.

Turning to `C[P+]1(C)CC[P+](C)(C)[99Tc-3]12([Br])([Br])[P+](C)(C)CC[P+]2(C)C` [[99m-Tc(DMPE)2 Br2]^+, [99m-Tc(DMPE)2 Br2]Br], in data set [1] (same conditions as Example 4), the “Myocardial uptake by the heart” value is “Myocardial uptake by the heart of a normal mongrel dog was observed”.
